From patent publication US20050170485A1, “Culture having phenol oxidase-like activity” (priority 2002, published 2005)

Key:
Assay type in all cases: biochemical
[1] = system: laccase from Japanese lacquer; experiment: Direct oxidation reaction by laccase (comparison); conditions: reaction pH 7.0; 2-chloro 1,4-phenylenediamine = 100
Procedure: (§1) Next, 20 μl of the above-mentioned culture solution was added to the resulting mixture. A change in absorbance at 490 nm, 450 nm or 405 nm was determined for the resulting product, depending on the substrate. Here, 1 U (unit) of the activity regarding the direct oxidative reaction was defined as an amount for increasing the absorbance by 1 per one minute.
(§2) In addition, for the comparison, the substrate specificities at pH 7.0 for laccase from Japanese lacquer and bilirubin oxidase from the strain belonging to the genus Myrothecium were also examined in the same manner.

[2] = target: T1, bilirubin oxidase from the strain belonging to the genus Myrothecium (Albifimbria verrucaria, UniProt Q12737); experiment: Direct oxidation reaction by bilirubin oxidase (comparison); parameters: concentration or dose not given beside the values; conditions: reaction pH 7.0; 2-chloro 1,4-phenylenediamine = 100
T1 sequence (Q12737 39-572): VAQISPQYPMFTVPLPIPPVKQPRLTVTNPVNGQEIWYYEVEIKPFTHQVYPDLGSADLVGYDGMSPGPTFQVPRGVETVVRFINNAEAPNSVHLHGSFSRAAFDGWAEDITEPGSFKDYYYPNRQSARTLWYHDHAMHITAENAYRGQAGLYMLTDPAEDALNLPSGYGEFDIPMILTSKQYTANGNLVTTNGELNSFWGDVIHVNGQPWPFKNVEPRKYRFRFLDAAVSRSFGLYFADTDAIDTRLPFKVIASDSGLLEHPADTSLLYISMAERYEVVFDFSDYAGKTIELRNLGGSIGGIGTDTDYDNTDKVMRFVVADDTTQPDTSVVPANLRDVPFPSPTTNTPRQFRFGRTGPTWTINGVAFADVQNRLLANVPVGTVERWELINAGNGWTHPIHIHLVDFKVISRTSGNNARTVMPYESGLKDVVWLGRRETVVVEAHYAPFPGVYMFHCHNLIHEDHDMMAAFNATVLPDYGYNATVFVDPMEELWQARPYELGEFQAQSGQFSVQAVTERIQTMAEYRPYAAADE
Procedure: as §1, with “Concretely, 180 μl of 0.89 mM sodium phosphate buffer (pH 7.0) containing […] substrate was pre-incubated in wells of a 96-well microplate [manufactured by Corning, Costor (registered trademark) 3368] at 25° C. for 1 minute. Next,” for “Next,”
as §2
The relative activity (%) for each substrate is shown in Table 7, in which the measured value for a case where a representative chemical dye 2-chloro 1,4-phenylenediamine was used as a substrate is 100.

[3] = system: culture of Flammulina velutipes strain IFO 30601; experiment: Direct oxidation reaction by the culture; conditions: for Relative Activity, Culture (direct oxidation): reaction pH 7.0, 2-chloro 1,4-phenylenediamine = 100; for activity of the culture compared with bilirubin oxidase from the genus Myrothecium, direct oxidation / activity of the culture compared with laccase from Japanese lacquer, direct oxidation: pH 7.0, relative activities of Table 7; for activity of the culture for the substrate in words, direct oxidation reaction: pH 7.0
Procedure: Further, the direct oxidation reaction of the culture obtained in the above-mentioned example was determined by using color development due to oxidative polymerization of a substrate generated by the direct action of the culture of the present invention on the substrate as an index.
As the substrates, there were used diaminophenolic compounds (2-chloro 1,4-phenylenediamine, p-phenylenediamine, 2,5-diaminotoluene, N-phenyl-p-phenylenediamine, toluylene-3,4-diamine, m-phenylenediamine), aminophenolic compounds (o-aminophenol, m-aminophenol, 5-amino-o-cresol, p-aminophenol, p-methylaminophenol), and phenolic compounds (2,6-dimethoxyphenol, catechol, resorcinol, hydroquinone, pyrogallol, gallic acid, propyl gallate, 1-naphthol, […], 2,3,4-trihydroxybenzophenone, 2,3,4,4-tetrahydroxybenzophenone). As to a substrate hardly soluble in water, there was used one obtained by dissolving the substrate in a small amount of dimethyl sulfoxide and diluting the resulting solution with deionized distilled water to a desired concentration. In Table 6, %” indicates volume/volume %.
as §1, with “Concretely, 180 μl of 0.89 mM sodium phosphate buffer (pH 7.0) containing […] substrate was pre-incubated in wells of a 96-well microplate [manufactured by Corning, Costor (registered trademark) 3368] at 25° C. for 1 minute. Next,” for “Next,”

Row | Compound | Relative Activity, Laccase from Japanese Lacquer (direct oxidation) [1] | Relative Activity, Bilirubin Oxidase from Strain Belonging to Genus Myrothecium (direct oxidation) [2] | Relative Activity, Culture (direct oxidation) [3] | activity of the culture compared with bilirubin oxidase from the genus Myrothecium, direct oxidation [3] | activity of the culture for the substrate in words, direct oxidation reaction [3] | activity of the culture compared with laccase from Japanese lacquer, direct oxidation [3] | activity of the culture for the substrate in words, direct oxidation reaction ([3]; listed as 2,3,4,4-tetrahydrobenzophenone)
1 | C1=CCC2=CC=CCC2=C1 [1,5-Dihydronaphthalene] | 47% | 69% | 63% | – | – | – | –
2 | Cc1cc(N)ccc1N [2,5-Diaminotoluene] | 44% | 24% | 80% | higher activity | – | – | –
3 | Nc1ccc(Nc2ccccc2)cc1 [N-Phenyl-p-phenylenediamine] | 94% | 102% | 174% | – | especially high activity | – | –
4 | CNc1ccc(O)cc1 [p-Methylaminophenol] | 308% | 122% | 304% | higher activity | especially high activity | – | –
5 | O=C(c1ccccc1)c1ccc(O)c(O)c1O [2,3,4-Trihydroxybenzophenone] | 175% | 62% | 537% | even higher activity | especially high activity | higher activity | –
6 | O=C(c1ccc(O)cc1)c1ccc(O)c(O)c1O [2,3,4,4-Tetrahydroxybenzophenone] | 179% | 52% | 571% | even higher activity | high activity | higher activity | especially high activity
7 | Cc1ccc(N)c(N)c1 [Toluylene-3,4-diamine] | 61% | 45% | 120% | higher activity | – | – | –
8 | Nc1ccc(N)c(Cl)c1 [2-Chloro 1,4-phenylenediamine] | 100% | 100% | 100% | – | – | – | –
9 | Cc1ccc(N)cc1O [5-Amino-o-cresol] | 1% | 19% | 117% | even higher activity | – | even higher activity | –
